Experimental data published in patent publication US20130252818A1, “AMORPHOUS BIOINORGANIC IONIC LIQUID COMPOSITIONS COMPRISING AGRICULTURAL SUBSTANCES” (priority 2012, published 2013).
Where a name gives a salt, the structure may show the parent alone. Read-outs that look alike come from different tables or passages of the source.

Key:
[1] = test system: Pseudomonas aeruginosa biofilms; experiment: Challenge of established biofilms with test compounds, CFU count; format: cell-based; details: 72 h biofilm, 6 h challenge
[2] = Storage under Ar, observed over 6 months for crystalline domains; format: physicochemical; details: stored under Ar
[3] = Thermogravimetric analysis (TGA), decomposition temperature; format: physicochemical
Procedure: Melting points of all purchased materials were determined in a capillary tube using a MeI-Temp apparatus (Barnstead/Thermo Scientific). NMR data sets were collected on a 300 MHz Bruker instrument using sample concentrations of 50 mM. Infrared spectra were measured using an Avatar 360 FT-IR ESP (ThermoElectron-Nicolet, Waltham, Mass.) equipped with a Smart DuraSampllR horizontal attenuated total reflectance (HATR) accessory. Raman spectra were measured using a Thermo-Nicolet 470 FTIR with Nd:YAG laser excitation and HgCdTe detector. Viscosity was measured on 1 mL samples with a Viscolab 3000 viscometer (Cambridge Viscosity, Medford, Mass.). Samples were heated to 90° C., except when otherwise specified, and viscosity was recorded in 2 degree increments between 50 and 90° C. with 8 min equilibration at each temperature. Thermal characterization was carried out using a Q100 DSC and a Q500 TGA (both from TA Instruments, New Castle, Del.). DSC was performed using a 5-10 mg sample in a 40 μL aluminum crucible sealed in the glovebox. A temperature range from −60 to 150° C. was scanned twice, at ramp rates of 5° C./min and 10° C./min. TGA was performed under N2 atmosphere over a temperature range from 25-800° C. with a ramp rate of 20° C. per minute and a sample size of 10 mg.

[4] = Shelf life estimate by model-free isoconversional kinetic analysis of TGA data; format: physicochemical
Procedure: Zinc(II) chloride (273 mg, 2 mmol) was added to a scintillation vial that had been heated, then cooled under vacuum and charged with dry argon. Phenoxybenzamine hydrochloride (340.3 mg, 1 mmol) was added to the vial with a stir bar and the mixture was degassed with stirring at 60° C. The vial was filled with argon, sealed with a cap, and stirred for 24 h at 80° C. to produce a clear, colorless glass. […] NMR spectra for ^1H and ^13C were obtained in d6-acetone. […] Spectra of phenoxybenzamine-HCl were performed with 0, 0.25, 0.5, 1.0, 1.5, 2.0, and 5.0 molar equivalents of ZnCl2 to observe this effect. Thermal decomposition after a 3 h incubation of the IL at a constant 120° C. was 2.7% of the starting mass. In contrast, the phenoxybenzamine hydrochloride starting material loses 38% of its mass after a similar incubation. The IL was soluble (>1 mM) in acetone, water and phosphate buffered to pH 6.0. The IL was insoluble (<1 mM) in toluene and tetrahydrofuran. […] Model-free isoconversional kinetic analysis (for more detail, see: Doyle, C. D., J. Appl. Polym. Sci. 1962, 6:639-642; and Long, G. T. et al., J. Pharm. Sci. 2002, 91:800-809) of TGA data was used to estimate increases in shelf life due to IL formulation for phenoxybenzamine hydrochloride and phenoxybenzamine-HCl—(ZnCl2)2. The onset of mass loss indicates loss of HCl during cyclization of the 2-chloroethylamine group, the most common decomposition pathway for phenoxybenzamine hydrochloride (for more detail, see: Adams, W. P. et al., Int. J. Pharm. 1985, 25:293-312). Formulation as an ionic liquid improves the shelf life (time to reach 5% decomposition) of solid phenoxybenzamine hydrochloride at 20° C. by 7.7-fold to 15.8 years. […] The manufacturer's shelf life for 10 mg phenoxybenzamine hydrochloride tablets is 2 years, or 730 days, and the calculated value for solid phenoxybenzamine hydrochloride (5% decay at 20° C.) was 750 days (2.05 years), indicating good agreement of the calculation with actual shelf life. The most common decomposition pathway for phenoxybenzamine hydrochloride is loss of hydrochloride during cyclization of the 2-chloroethylamine group (for more detail, see: Adams, W. P. et al., Int. J. Pharm. 1985, 25:293-312) and we expect this is the earliest mass loss observed by TGA. The IL phenoxybenzamine-HCl—(ZnCl2)2 is a stabilized, amorphous formulation with shelf life greater than that of the most common crystalline form.

[5] = Solubility at 1 mM in unbuffered water by eye and UV-Vis after filtration; details: for A268 of the filtrate: 0.45 μm syringe filter
Procedure: Solubility of phenoxybenzamine hydrochloride and phenoxybenzamine-HCl—(ZnCl2)2 at 1 mM in unbuffered water (pH 6.5) was evaluated by eye and by UV-Vis spectroscopy after filtration through a 0.45 μm syringe filter.

[6] = Solubility of the IL in solvents
Pseudomonas aeruginosa = experiment: Biofilm growth on IL-coated culture plates; format: cell-based; details: wells coated with 100 uL IL, 72 h
Procedure: (§1) A second example of clear, colorless antimicrobial films formed by compositions described herein was shown with an assay that involved coating culture plates with IL and observing the biofilm growth on the coated surface. […] Aliquots of 100 μL of either a Staphylococcus aureus culture, an E. coli culture, or a Pseudomonas aeruginosa culture were added to each coated well, the plate was fed with fresh media every 24 h, and cells were counted after 72 h, as described above. The number of cells in the treated wells was below the limit of detection of the assay of 1000 cfu/mL, as compared with normal cell counts for the LB control wells, indicating high antimicrobial efficacy of the IL coating. Because bacteria colonize a surface prior to barnacles and other organisms, proof of antibacterial effects is key to showing anti-biofouling potential in aquatic environments.

Staphylococcus aureus = experiment: Biofilm growth on IL-coated culture plates; format: cell-based; details: wells coated with 100 uL IL, 72 h
Procedure: as §1

E. coli = experiment: Biofilm growth on IL-coated culture plates; format: cell-based; details: wells coated with 100 uL IL, 72 h
Procedure: as §1

[7] = format: physicochemical; details: 3 h incubation at constant 120° C.
[8] = TGA under N2, ramp 20° C. per minute
[9] = solid, 20° C., calculated from TGA kinetics
[10] = 1 mM in unbuffered water (pH 6.5)

Compound: [Cl-].[Cl-].[Zn+2] [ZnCl2, Zinc(II) chloride]
- Cell count remaining in biofilm ([1]; 1.8 M in LB): 4×10^5

Compound: [Cl-].[Na+] [NaCl]
- Cell count remaining in biofilm ([1]; 5 M in LB): 1×10^6 cells

Compound: Procainamide-HCl—(ZnCl2)2
- Appearance of crystalline domains on storage [2]: no crystalline domains appeared

Compound: CCCC[N+]1(C)CCCC1.O=S(=O)([N-]S(=O)(=O)C(F)(F)F)C(F)(F)F [BMP-NTf2, 1-butyl-1-methypyrrolidinium bistriflimide]
- Cell count remaining in biofilm ([1]; neat): 2×10^5

Compound: CC(COc1ccccc1)N(CCCl)Cc1ccccc1.Cl.[Cl][Zn][Cl].[Cl][Zn][Cl] (stereo not shown) [Phenoxybenzamine-HCl—(ZnCl2)2]
- ΔTdec (increase in decomposition temperature relative to HCl starting material) [3]: +45.1 °C
- Tdec (decomposition temperature) [3, 8]: 259.0 °C
- Improvement of shelf life over standard formulation in syrup and propylene glycol (4-day refrigerator shelf life) [4]: 1500 fold
- Improvement of shelf life over solid phenoxybenzamine hydrochloride ([4]; 20° C., time to 5% decomposition): 7.7 fold
- Shelf life (time to reach 5% decomposition) [4, 9]: 15.8 years
- Solubility evaluated by eye ([5]; 1 mM (0.34 mg/mL) in unbuffered water (pH 6.5)): completely dissolve
- A268 of the filtrate relative to phenoxybenzamine hydrochloride solution [5, 10]: 5 ×
- A268 of the filtrate [5, 10]: 1.56
- Solubility ([6]; acetone): > 1000 µM
- Solubility ([6]; phosphate buffered to pH 6.0): > 1000 µM
- Solubility ([6]; tetrahydrofuran): < 1000 µM
- Solubility ([6]; toluene): < 1000 µM
- Solubility ([6]; water): > 1000 µM
- Appearance of crystalline domains on storage [2]: no crystalline domains appeared

Compound: CC(C)(C)CC(C)(C)c1ccc(OCCOCC[N+](C)(C)Cc2ccccc2)cc1 [Benzethonium-Cl—(ZnCl2)2]
- Number of cells in treated wells (Pseudomonas aeruginosa): < 1000 cfu/mL
- Number of cells in treated wells (Staphylococcus aureus): < 1000 cfu/mL
- Number of cells in treated wells (E. coli): < 1000 cfu/mL

Compound: CC(COc1ccccc1)N(CCCl)Cc1ccccc1 (stereo not shown) [phenoxybenzamine hydrochloride, reference compound]
- Thermal decomposition, % of the starting mass lost [7]: 38%
- Shelf life (5% decay) [4, 9]: 750 days
- Shelf life (time to reach 5% decomposition) [4, 9]: 2.05 years
- A268 of the filtrate [5, 10]: 0.30

Compound: CN(C)CCCN1c2ccccc2CCc2ccccc21.Cl.[Cl][Zn][Cl].[Cl][Zn][Cl] [Imipramine-HCl—(ZnCl2)2]
- ΔTdec (increase in decomposition temperature relative to HCl starting material) [3]: +21.4 °C
- Tdec (decomposition temperature) [3, 8]: 267.2 °C
- Appearance of crystalline domains on storage [2]: no crystalline domains appeared

Compound: CC(C)(C)CC(C)(C)c1ccc(OCCOCC[N+](C)(C)Cc2ccccc2)cc1 [benzethonium chloride]
- Viable dispersed cell count (conservative estimate, some exposures) ([1]; 78 mM in LB, precipitate impeded quantification): 5×10^4 cfu/mL

Compound: CN1[C@@H]2CC[C@H]1CC(OC(=O)C(O)c1ccccc1)C2 (stereo partly shown) [Homatropine-HCl—(ZnCl2)2]
- Tdec (decomposition temperature) [3]: 274.5 °C
- ΔTdec (increase in decomposition temperature relative to HCl starting material) [3]: +7.8 °C
- Appearance of crystalline domains on storage [2]: no crystalline domains appeared

Compound: Ethambutol-(HCl)2—(ZnCl2)2
- Tdec (decomposition temperature) [3, 8]: 216.5 °C
- Appearance of crystalline domains on storage [2]: no crystalline domains appeared

Compound: CNC(=C[N+](=O)[O-])NCCSCc1ccc(CN(C)C)o1.Cl.[Cl][Zn][Cl].[Cl][Zn][Cl]
- ΔTdec (increase in decomposition temperature relative to HCl starting material) [3]: +14.1 °C
- Solubility ([6]; acetone): > 1000 µM
- Appearance of crystalline domains on storage [2]: no crystalline domains appeared
